Measured values: ChEMBL document CHEMBL5150017, “Mechanism of Action and Structure-Activity Relationship of α-Conotoxin Mr1.1 at the Human α9α10 Nicotinic Acetylcholine Receptor” (J Med Chem, 2022)
The source made the active and inactive calls. No cut-off for these calls is given here. Positions of bridges follow the written chain, without caps; N, C: chain ends. Non-standard residues stand in square brackets, D forms with d. Residues, ends and D or L forms follow the SMILES beside them. ξ: configuration not given here. Cit = NC(=O)NCCC[C@H](N)C(=O)O; Dap = NC[C@H](N)C(=O)O; ξDab = NCCC(N)C(=O)O; ξDap = NCC(N)C(=O)O

Molecular target: Neuronal acetylcholine receptor; alpha9/alpha10 (Homo sapiens) (UniProt Q9UGM1+Q9GZZ6)
Test: Antagonist activity at human alpha9alpha10 nAChR expressed in Xenopus laevis oocytes assessed as inhibition of ACh-induced current amplitude at -80 mV holding potential at 100 nM by two-electrode voltage clamp method
Assay type: cell-based
Conditions: Oocyte

| SMILES | inhibition |
| --- | --- |
| CC[C@H](C)[C@@H]1NC(=O)[C@H](CC(=O)O)NC(=O)[C@@H]2CCCN2C(=O)[C@H](CC(N)=O)NC(=O)[C@H](CC(N)=O)NC(=O)[C@H](CC(=O)O)NC(=O)[C@H](CO)NC(=O)[C@@H]2CSSC[C@H](NC(=O)CN)C(=O)N[C@@H](CSSC[C@@H](C(N)=O)NC1=O)C(=O)N[C@@H](CO)C(=O)N[C@@H](Cc1cnc[nH]1)C(=O)N1CCC[C@H]1C(=O)N[C@@H](C)C(=O)N2 (H-GCCSHPACSDNNPDIC-NH2; disulfide 2-8, 3-16) | < 5% |
| CC[C@H](C)[C@@H]1NC(=O)[C@H](CC(=O)O)NC(=O)[C@@H]2CCCN2C(=O)[C@H](CC(N)=O)NC(=O)[C@H](CC(N)=O)NC(=O)[C@H](CCCCN)NC(=O)[C@H](CO)NC(=O)[C@@H]2CSSC[C@H](NC(=O)CN)C(=O)N[C@@H](CSSC[C@@H](C(N)=O)NC1=O)C(=O)N[C@@H](CO)C(=O)N[C@@H](Cc1cnc[nH]1)C(=O)N1CCC[C@H]1C(=O)N[C@@H](C)C(=O)N2 (H-GCCSHPACSKNNPDIC-NH2; disulfide 2-8, 3-16) | < 5% |
| CC[C@H](C)[C@@H]1NC(=O)[C@H](CC(=O)O)NC(=O)[C@@H]2CCCN2C(=O)[C@H](CC(N)=O)NC(=O)[C@H](CC(N)=O)NC(=O)[C@H](C(C)C)NC(=O)[C@H](CO)NC(=O)[C@@H]2CSSC[C@H](NC(=O)CN)C(=O)N[C@@H](CSSC[C@@H](C(=O)N[C@@H](CC(C)C)C(N)=O)NC1=O)C(=O)N[C@@H](CO)C(=O)N[C@@H](Cc1cnc[nH]1)C(=O)N1CCC[C@H]1C(=O)N[C@@H](C)C(=O)N2 (H-GCCSHPACSVNNPDICL-NH2; disulfide 2-8, 3-16) | 15% |
| CC[C@H](C)[C@@H]1NC(=O)[C@H](CC(=O)O)NC(=O)[C@@H]2CCCN2C(=O)[C@H](CC(N)=O)NC(=O)[C@H](CC(N)=O)NC(=O)[C@H](C(C)C)NC(=O)[C@H](CO)NC(=O)[C@@H]2CSSC[C@H](NC(=O)CN)C(=O)N[C@@H](CSSC[C@@H](C(=O)N[C@@H](Cc3ccc(O)cc3)C(N)=O)NC1=O)C(=O)N[C@@H](CO)C(=O)N[C@@H](Cc1cnc[nH]1)C(=O)N1CCC[C@H]1C(=O)N[C@@H](C)C(=O)N2 (H-GCCSHPACSVNNPDICY-NH2; disulfide 2-8, 3-16) | 15% |
| CC[C@H](C)[C@@H]1NC(=O)[C@H](CC(=O)O)NC(=O)[C@@H]2CCCN2C(=O)[C@H](CC(N)=O)NC(=O)[C@H](CC(N)=O)NC(=O)[C@H](CCCNC(N)=O)NC(=O)[C@H](CO)NC(=O)[C@@H]2CSSC[C@H](NC(=O)CN)C(=O)N[C@@H](CSSC[C@@H](C(N)=O)NC1=O)C(=O)N[C@@H](CO)C(=O)N[C@@H](Cc1cnc[nH]1)C(=O)N1CCC[C@H]1C(=O)N[C@@H](C)C(=O)N2 (H-GCCSHPACS[Cit]NNPDIC-NH2; disulfide 2-8, 3-16) | < 5% |
| CC[C@H](C)[C@@H]1NC(=O)[C@H](CC(=O)O)NC(=O)[C@@H]2CCCN2C(=O)[C@H](CC(N)=O)NC(=O)[C@H](CC(N)=O)NC(=O)C(CCN)NC(=O)[C@H](CO)NC(=O)[C@@H]2CSSC[C@H](NC(=O)CN)C(=O)N[C@@H](CSSC[C@@H](C(N)=O)NC1=O)C(=O)N[C@@H](CO)C(=O)N[C@@H](Cc1cnc[nH]1)C(=O)N1CCC[C@H]1C(=O)N[C@@H](C)C(=O)N2 (stereo not given in full) (H-GCCSHPACS[ξDab]NNPDIC-NH2; disulfide 2-8, 3-16) | 35% |
| CC[C@H](C)[C@@H]1NC(=O)[C@H](CC(=O)O)NC(=O)[C@@H]2CCCN2C(=O)[C@H](CC(N)=O)NC(=O)[C@H](CC(N)=O)NC(=O)[C@H](C(C)C)NC(=O)[C@H](Cc2ccc(O)cc2)NC(=O)[C@@H]2CSSC[C@H](NC(=O)CN)C(=O)N[C@@H](CSSC[C@@H](C(N)=O)NC1=O)C(=O)N[C@@H](CO)C(=O)N[C@@H](Cc1cnc[nH]1)C(=O)N1CCC[C@H]1C(=O)N[C@@H](C)C(=O)N2 (H-GCCSHPACYVNNPDIC-NH2; disulfide 2-8, 3-16) | 5% |
| CC[C@H](C)[C@@H]1NC(=O)[C@H](CC(=O)O)NC(=O)[C@@H]2CCCN2C(=O)[C@H](CC(N)=O)NC(=O)[C@H](CC(N)=O)NC(=O)[C@H](C(C)C)NC(=O)C(CCN)NC(=O)[C@@H]2CSSC[C@H](NC(=O)CN)C(=O)N[C@@H](CSSC[C@@H](C(N)=O)NC1=O)C(=O)N[C@@H](CO)C(=O)N[C@@H](Cc1cnc[nH]1)C(=O)N1CCC[C@H]1C(=O)N[C@@H](C)C(=O)N2 (stereo not given in full) (H-GCCSHPAC[ξDab]VNNPDIC-NH2; disulfide 2-8, 3-16) | 15% |
| CC[C@H](C)[C@@H]1NC(=O)[C@H](CC(=O)O)NC(=O)[C@@H]2CCCN2C(=O)[C@H](CC(N)=O)NC(=O)[C@H](CC(N)=O)NC(=O)[C@H](C(C)C)NC(=O)[C@H](CO)NC(=O)[C@@H]2CSSC[C@H](NC(=O)CN)C(=O)N[C@@H](CSSC[C@@H](C(N)=O)NC1=O)C(=O)N[C@@H](CO)C(=O)N[C@@H](CCCNC(=N)N)C(=O)N1CCC[C@H]1C(=O)N[C@@H](C)C(=O)N2 (H-GCCSRPACSVNNPDIC-NH2; disulfide 2-8, 3-16) | 10% |
| CC[C@H](C)[C@@H]1NC(=O)[C@H](CC(=O)O)NC(=O)[C@@H]2CCCN2C(=O)[C@H](CC(N)=O)NC(=O)[C@H](CC(N)=O)NC(=O)[C@H](C(C)C)NC(=O)[C@H](CO)NC(=O)[C@@H]2CSSC[C@H](NC(=O)CN)C(=O)N[C@@H](CSSC[C@@H](C(N)=O)NC1=O)C(=O)N[C@@H]([C@@H](C)O)C(=O)N[C@@H](Cc1cnc[nH]1)C(=O)N1CCC[C@H]1C(=O)N[C@@H](C)C(=O)N2 (H-GCCTHPACSVNNPDIC-NH2; disulfide 2-8, 3-16) | 10% |

Same assay, conditions: Oocyte, filed as antagonist

| SMILES | inhibition |
| --- | --- |
| CC[C@H](C)[C@@H]1NC(=O)[C@H](CC(=O)O)NC(=O)[C@@H]2CCCN2C(=O)[C@H](CC(N)=O)NC(=O)[C@H](CC(N)=O)NC(=O)[C@H](C(C)C)NC(=O)[C@H](CO)NC(=O)[C@@H]2CSSC[C@H](NC(=O)CN)C(=O)N[C@@H](CSSC[C@@H](C(N)=O)NC1=O)C(=O)N[C@@H](CCCNC(=N)N)C(=O)N[C@@H](Cc1cnc[nH]1)C(=O)N1CCC[C@H]1C(=O)N[C@@H](C)C(=O)N2 (H-GCCRHPACSVNNPDIC-NH2; disulfide 2-8, 3-16) | > 85% |
| CC[C@H](C)[C@@H]1NC(=O)[C@H](CC(=O)O)NC(=O)[C@@H]2CCCN2C(=O)[C@H](CC(N)=O)NC(=O)[C@H](CC(N)=O)NC(=O)[C@H](CCCNC(=N)N)NC(=O)[C@H](CO)NC(=O)[C@@H]2CSSC[C@H](NC(=O)CN)C(=O)N[C@@H](CSSC[C@@H](C(N)=O)NC1=O)C(=O)N[C@@H](CO)C(=O)N[C@@H](Cc1cnc[nH]1)C(=O)N1CCC[C@H]1C(=O)N[C@@H](C)C(=O)N2 (H-GCCSHPACSRNNPDIC-NH2; disulfide 2-8, 3-16) | 60% |
| CC[C@H](C)[C@@H]1NC(=O)[C@H](CC(=O)O)NC(=O)[C@@H]2CCCN2C(=O)[C@H](CC(N)=O)NC(=O)[C@H](CC(N)=O)NC(=O)[C@H](C(C)C)NC(=O)[C@H](CO)NC(=O)[C@@H]2CSSC[C@H](NC(=O)CN)C(=O)N[C@@H](CSSC[C@@H](C(=O)N[C@@H](CCCNC(=N)N)C(N)=O)NC1=O)C(=O)N[C@@H](CO)C(=O)N[C@@H](Cc1cnc[nH]1)C(=O)N1CCC[C@H]1C(=O)N[C@@H](C)C(=O)N2 (H-GCCSHPACSVNNPDICR-NH2; disulfide 2-8, 3-16) | 60% |
| CC[C@H](C)[C@@H]1NC(=O)[C@H](CC(=O)O)NC(=O)[C@@H]2CCCN2C(=O)[C@H](CC(N)=O)NC(=O)[C@H](CC(N)=O)NC(=O)[C@H](CN)NC(=O)[C@H](CO)NC(=O)[C@@H]2CSSC[C@H](NC(=O)CN)C(=O)N[C@@H](CSSC[C@@H](C(N)=O)NC1=O)C(=O)N[C@@H](CO)C(=O)N[C@@H](Cc1c[nH]cn1)C(=O)N1CCC[C@H]1C(=O)N[C@@H](C)C(=O)N2 (H-GCCSHPACS[Dap]NNPDIC-NH2; disulfide 2-8, 3-16) | Active |
| CC[C@H](C)[C@@H]1NC(=O)[C@H](CC(=O)O)NC(=O)[C@@H]2CCCN2C(=O)[C@H](CC(N)=O)NC(=O)[C@H](CC(N)=O)NC(=O)C(CCN)NC(=O)[C@H](CO)NC(=O)[C@@H]2CSSC[C@H](NC(=O)CN)C(=O)N[C@@H](CSSC[C@@H](C(N)=O)NC1=O)C(=O)N[C@@H](CO)C(=O)N[C@@H](Cc1cnc[nH]1)C(=O)N1CCC[C@H]1C(=O)N[C@@H](C)C(=O)N2 (stereo not given in full) (H-GCCSHPACS[ξDab]NNPDIC-NH2; disulfide 2-8, 3-16) | Active |
| CC[C@H](C)[C@@H]1NC(=O)[C@H](CC(=O)O)NC(=O)[C@@H]2CCCN2C(=O)[C@H](CC(N)=O)NC(=O)[C@H](CC(N)=O)NC(=O)C(CN)NC(=O)[C@H](CO)NC(=O)[C@@H]2CSSC[C@H](NC(=O)CN)C(=O)N[C@@H](CSSC[C@@H](C(N)=O)NC1=O)C(=O)N[C@@H](CO)C(=O)N[C@@H](Cc1cnc[nH]1)C(=O)N1CCC[C@H]1C(=O)N[C@@H](C)C(=O)N2 (stereo not given in full) (H-GCCSHPACS[ξDap]NNPDIC-NH2; disulfide 2-8, 3-16) | > 90% |
| CC[C@H](C)[C@@H]1NC(=O)[C@H](CC(=O)O)NC(=O)[C@@H]2CCCN2C(=O)[C@H](CC(N)=O)NC(=O)[C@H](CC(N)=O)NC(=O)[C@H](C(C)C)NC(=O)[C@H](CN)NC(=O)[C@@H]2CSSC[C@H](NC(=O)CN)C(=O)N[C@@H](CSSC[C@@H](C(N)=O)NC1=O)C(=O)N[C@@H](CO)C(=O)N[C@@H](Cc1c[nH]cn1)C(=O)N1CCC[C@H]1C(=O)N[C@@H](C)C(=O)N2 (H-GCCSHPAC[Dap]VNNPDIC-NH2; disulfide 2-8, 3-16) | Active |
| CC[C@H](C)[C@@H]1NC(=O)[C@H](CC(=O)O)NC(=O)[C@@H]2CCCN2C(=O)[C@H](CC(N)=O)NC(=O)[C@H](CC(N)=O)NC(=O)[C@H](C(C)C)NC(=O)C(CN)NC(=O)[C@@H]2CSSC[C@H](NC(=O)CN)C(=O)N[C@@H](CSSC[C@@H](C(N)=O)NC1=O)C(=O)N[C@@H](CO)C(=O)N[C@@H](Cc1cnc[nH]1)C(=O)N1CCC[C@H]1C(=O)N[C@@H](C)C(=O)N2 (stereo not given in full) (H-GCCSHPAC[ξDap]VNNPDIC-NH2; disulfide 2-8, 3-16) | 80% |
| CC[C@H](C)[C@@H]1NC(=O)[C@H](CC(=O)O)NC(=O)[C@@H]2CCCN2C(=O)[C@H](CC(N)=O)NC(=O)[C@H](CC(N)=O)NC(=O)[C@H](C(C)C)NC(=O)[C@H](CO)NC(=O)[C@@H]2CSSC[C@H](NC(=O)CN)C(=O)N[C@@H](CSSC[C@@H](C(N)=O)NC1=O)C(=O)NC(CCN)C(=O)N[C@@H](Cc1cnc[nH]1)C(=O)N1CCC[C@H]1C(=O)N[C@@H](C)C(=O)N2 (stereo not given in full) (H-GCC[ξDab]HPACSVNNPDIC-NH2; disulfide 2-8, 3-16) | > 85% |
| CC[C@H](C)[C@@H]1NC(=O)[C@H](CC(=O)O)NC(=O)[C@@H]2CCCN2C(=O)[C@H](CC(N)=O)NC(=O)[C@H](CC(N)=O)NC(=O)C(CN)NC(=O)[C@H](CO)NC(=O)[C@@H]2CSSC[C@H](NC(=O)CN)C(=O)N[C@@H](CSSC[C@@H](C(N)=O)NC1=O)C(=O)NC(CN)C(=O)N[C@@H](Cc1cnc[nH]1)C(=O)N1CCC[C@H]1C(=O)N[C@@H](C)C(=O)N2 (stereo not given in full) (H-GCC[ξDap]HPACS[ξDap]NNPDIC-NH2; disulfide 2-8, 3-16) | > 95% |
